Test results taken from patent publication US11697639B2, “Quaternary ammonium salt compound, preparation method therefor and use thereof” (WEST CHINA HOSPITAL, SICHUAN UNIVERSITY, priority 2018, dated 2023).
Where a name gives a salt, the structure may show the parent alone.

Tests used:
Format in all cases: in vivo
back skin of rat = assay: Local anesthetic effect by subcutaneous infiltration in rat back skin (Von Frey 100 g); conditions: 0.5 mL in saline, compound 6 mmol/L, bupivacaine 23 mmol/L, 10 rats per compound
Experimental: After the back of rat weighing 250-300 g was shaved and disinfected, a circle with a diameter of about 1.5 cm was drawn on the side of the exposed back, and the circle is divided into 6 equal parts. […] Among the Von Frey fiber yarns, the one with a strength of 100 g was bound to the needle for local skin stimulation. One minute After the drug was injected, the above method was used to stimulate in 6 divisions. […] If back skin contraction was observed, the local anesthetic effect was considered as loss. […] Each compound was tested with 10 rats.

rat's sciatic nerve [1] = assay: Rat sciatic nerve block, sensory block tested with von Frey stimulator; conditions: 0.5 mL injected near sciatic nerve, test drugs 20 mmol/mL in distilled water, lidocaine 2%, levobupivacaine 0.75%; for Local anesthesia onset time (Median): 8 rats per group; for Time of sensory block (Median): von Frey
Experimental: (§1) For the dosage, the lidocaine group is 2% aqueous solution, the levobupivacaine group is 0.75% aqueous solution, and test drug groups are all distilled water solution at the concentration of 20 mmol/mL.
(§2) The injection volume for each rat or the control was 0.5 mL, which was guided by a nerve locator and injected near the rat's sciatic nerve. Using von Frey stimulator, the rats were stimulated the soles of the feet in the injected side, to observe the effect of local anesthesia. Meanwhile, Postural Extensor Thrust (PET) was used to evaluate the motor function of the rat: the rat was lifted vertically and the hindlimb in the injected side pedaled on the platform of the electronic balance. […] When the limb was completely paralyzed, the reading was the limb's own weight, about 20 g. If the measured value was more than half of the difference between the baseline and the limb weight, the motor function was regarded as recovery, and if the value was less than or equal to this difference, the motor function was regarded as loss.

rat's sciatic nerve [2] = assay: Rat sciatic nerve block, motor function by Postural Extensor Thrust (PET); conditions: 0.5 mL injected near sciatic nerve, test drugs 20 mmol/mL in distilled water, lidocaine 2%, levobupivacaine 0.75%
Experimental: as §1, §2

CCC[N+](C)(CCCCCN1CCCCC1C(=O)Nc1c(C)cc(C)cc1C)CC(=O)Nc1c(C)cc(C#N)cc1C (stereo not shown) [example 13]
Lasting time of local anesthesia (Median) (back skin of rat): 45 h
Local anesthesia onset time (Median) (back skin of rat): 1 min
Local anesthesia onset time (Median) (rat's sciatic nerve [1]): 1 min
Time of sensory block (Median) (rat's sciatic nerve [1]): 25 h
Time of motor block (Median) (rat's sciatic nerve [2]): 17 h

CCC[N+](CC)(CCCCCCCN1CCCCC1C(=O)Nc1c(C)ccc(Cl)c1C)CC(=O)Nc1c(C)ccc(C#N)c1C.[Br-] (stereo not shown) [example 24]
Local anesthesia onset time (Median) (rat's sciatic nerve [1]): 1 min
Time of sensory block (Median) (rat's sciatic nerve [1]): 24 h
Time of motor block (Median) (rat's sciatic nerve [2]): 16 h

CCCCN1CCCC[C@H]1C(=O)Nc1c(C)cccc1C [Levobupivacaine Hydrochloride, reference compound]
Lasting time of local anesthesia (Median) (back skin of rat): 7 h
Local anesthesia onset time (Median) (back skin of rat): 1 min
Local anesthesia onset time (Median) (rat's sciatic nerve [1]): 1 min
Time of sensory block (Median) (rat's sciatic nerve [1]): 2.5 h
Time of motor block (Median) (rat's sciatic nerve [2]): 2.5 h

CC[N+](C)(CCCN1CCCC[C@@H]1C(=O)Nc1c(C)cccc1C)CC(=O)Nc1c(C)cccc1C (stereo partly shown) [example 16]
Local anesthesia onset time (Median) (rat's sciatic nerve [1]): 1 min
Time of sensory block (Median) (rat's sciatic nerve [1]): 25 h
Time of motor block (Median) (rat's sciatic nerve [2]): 19 h

CCC[N+](CC)(CCCCCCCN1CCCC[C@@H]1C(=O)Nc1c(C)ccc(C(=O)O)c1C)CC(=O)Nc1c(C)ccc(OC)c1C.[Br-] (stereo partly shown) [example 28]
Local anesthesia onset time (Median) (rat's sciatic nerve [1]): 4 min
Time of sensory block (Median) (rat's sciatic nerve [1]): 26 h
Time of motor block (Median) (rat's sciatic nerve [2]): 18 h

CCC[N+](CC)(CCCCCN1CCCCC1C(=O)Nc1c(C)cccc1C)CC(=O)Nc1c(C)cc([N+](=O)[O-])cc1C (stereo not shown) [example 3]
Lasting time of local anesthesia (Median) (back skin of rat): 37 h
Local anesthesia onset time (Median) (back skin of rat): 1 min
Local anesthesia onset time (Median) (rat's sciatic nerve [1]): 1 min
Time of sensory block (Median) (rat's sciatic nerve [1]): 27 h
Time of motor block (Median) (rat's sciatic nerve [2]): 10 h

CCCC[N+](CC)(CCCCCCN1CCCCC1C(=O)Nc1c(C)cc([N+](=O)[O-])cc1C)CC(=O)Nc1c(C)cc(C(=O)O)cc1C.[Br-] (stereo not shown) [example 27]
Local anesthesia onset time (Median) (rat's sciatic nerve [1]): 2 min
Time of sensory block (Median) (rat's sciatic nerve [1]): 28 h
Time of motor block (Median) (rat's sciatic nerve [2]): 22 h

CCC[N+](CC)(CCCCCCCCN1CCCC[C@H]1C(=O)Nc1c(C)cccc1C)CC(=O)Nc1c(C)cccc1C.[Br-] (stereo partly shown) [example 19]
Local anesthesia onset time (Median) (rat's sciatic nerve [1]): 1 min
Time of sensory block (Median) (rat's sciatic nerve [1]): 29 h
Time of motor block (Median) (rat's sciatic nerve [2]): 22 h

CCC[N+](CC)(CCCCCCCN1CCC(OC)C[C@@H]1C(=O)Nc1c(C)cccc1C)CC(=O)Nc1c(C)cccc1C.[Br-] (stereo partly shown) [example 22]
Local anesthesia onset time (Median) (rat's sciatic nerve [1]): 3 min
Time of sensory block (Median) (rat's sciatic nerve [1]): 29 h
Time of motor block (Median) (rat's sciatic nerve [2]): 18 h

CC[N+](C)(CCCN1CCCCC1C(=O)Nc1c(C)cccc1C)CC(=O)Nc1c(C)cccc1C.O=C(O)c1ccccc1.[Br-] (stereo not shown) [example 14]
Local anesthesia onset time (Median) (rat's sciatic nerve [1]): 3 min
Time of sensory block (Median) (rat's sciatic nerve [1]): 32 h
Time of motor block (Median) (rat's sciatic nerve [2]): 18 h

CCC[N+](CC)(CCCCCCCCN1CCCCC1C(=O)Nc1c(C)cccc1C)CC(=O)Nc1c(C)cccc1C.[Br-] (stereo not shown) [example 21]
Local anesthesia onset time (Median) (rat's sciatic nerve [1]): 1 min
Time of sensory block (Median) (rat's sciatic nerve [1]): 24 h
Time of motor block (Median) (rat's sciatic nerve [2]): 18 h

Br.CCC[N+](CC)(CCCN1CCCCC1C(=O)Nc1c(C)ccc(S)c1C)CC(=O)Nc1c(C)cc(O)cc1C.[Br-] (stereo not shown) [example 18]
Local anesthesia onset time (Median) (rat's sciatic nerve [1]): 1 min
Time of sensory block (Median) (rat's sciatic nerve [1]): 31 h
Time of motor block (Median) (rat's sciatic nerve [2]): 21 h

CCC[N+](CC)(CCCCCCCCN1CCCCC1C(=O)Nc1c(C)cccc1C)CC(=O)Nc1c(C)cccc1C.[Br-] (stereo not shown) [example 17]
Local anesthesia onset time (Median) (rat's sciatic nerve [1]): 5 min
Time of sensory block (Median) (rat's sciatic nerve [1]): 24 h
Time of motor block (Median) (rat's sciatic nerve [2]): 17 h

CCC[N+](CC)(CCCCCCCCN1CCCC1C(=O)Nc1c(C)ccc(C#N)c1C)CC(=O)Nc1c(C)ccc(C(=O)OC)c1C.[Br-] (stereo not shown) [example 26]
Local anesthesia onset time (Median) (rat's sciatic nerve [1]): 3 min
Time of sensory block (Median) (rat's sciatic nerve [1]): 25 h
Time of motor block (Median) (rat's sciatic nerve [2]): 18 h

CCC[N+](CC)(CCCCCCCCN1CCCCC1C(=O)Nc1c(C)cc(OC)cc1C)CC(=O)Nc1c(C)ccc([N+](=O)[O-])c1C.[Br-] (stereo not shown) [example 29]
Local anesthesia onset time (Median) (rat's sciatic nerve [1]): 1 min
Time of sensory block (Median) (rat's sciatic nerve [1]): 33 h
Time of motor block (Median) (rat's sciatic nerve [2]): 28 h

CC[N+](C)(CCCN1CCCCC1C(=O)Nc1c(C)cccc1C)CC(=O)Nc1c(C)ccc(Cl)c1C (stereo not shown) [example 6]
Lasting time of local anesthesia (Median) (back skin of rat): 47 h
Local anesthesia onset time (Median) (back skin of rat): 1 min
Local anesthesia onset time (Median) (rat's sciatic nerve [1]): 3 min
Time of sensory block (Median) (rat's sciatic nerve [1]): 30 h
Time of motor block (Median) (rat's sciatic nerve [2]): 19 h

CCC[N+](CC)(CCCCCCCCN1CCCCC1C(=O)Nc1c(C)cccc1C)CC(=O)Nc1c(C)cccc1C.Cl.[Br-] (stereo not shown) [example 15]
Local anesthesia onset time (Median) (rat's sciatic nerve [1]): 2 min
Time of sensory block (Median) (rat's sciatic nerve [1]): 38 h
Time of motor block (Median) (rat's sciatic nerve [2]): 25 h

CCC[N+](CC)(CCCCCCCCN1CCCCC1C(=O)Nc1c(C)cccc1C)CC(=O)Nc1c(C)ccc(Br)c1C (stereo not shown) [example 4]
Lasting time of local anesthesia (Median) (back skin of rat): 44 h
Local anesthesia onset time (Median) (back skin of rat): 2 min
Local anesthesia onset time (Median) (rat's sciatic nerve [1]): 1 min
Time of sensory block (Median) (rat's sciatic nerve [1]): 33 h
Time of motor block (Median) (rat's sciatic nerve [2]): 10 h

CCC[N+](CC)(CCCCCCCCN1CCCC[C@@H]1C(=O)Nc1c(C)cccc1C)CC(=O)Nc1c(C)cccc1C.O=C(O)CC(O)(CC(=O)O)C(=O)O.[Br-] (stereo partly shown) [example 25]
Local anesthesia onset time (Median) (rat's sciatic nerve [1]): 5 min
Time of sensory block (Median) (rat's sciatic nerve [1]): 32 h
Time of motor block (Median) (rat's sciatic nerve [2]): 24 h

CCCCN(C(=O)[C@@H]1CCCCN1CCCCCCC[N+](CC)(CCC)CC(=O)Nc1c(C)cccc1C)c1c(C)cccc1C.[Br-] (stereo partly shown) [example 23]
Local anesthesia onset time (Median) (rat's sciatic nerve [1]): 2 min
Time of sensory block (Median) (rat's sciatic nerve [1]): 35 h
Time of motor block (Median) (rat's sciatic nerve [2]): 28 h

CCC[N+](CC)(CCCN1CCCC[C@@H]1C(=O)Nc1c(C)ccc(C(=O)OC)c1C)CC(=O)Nc1c(C)ccc(N)c1C.O=C(O)C(O)C(O)C(=O)O.[Br-] (stereo partly shown) [example 30]
Local anesthesia onset time (Median) (rat's sciatic nerve [1]): 4 min
Time of sensory block (Median) (rat's sciatic nerve [1]): 28 h
Time of motor block (Median) (rat's sciatic nerve [2]): 19 h

CCC[N+](CC)(CCCCN1C(C)CCCC1C(=O)Nc1c(C)cccc1C(C)C)CC(=O)Nc1c(C)cccc1C(C)C.[Br-] (stereo not shown) [example 20]
Local anesthesia onset time (Median) (rat's sciatic nerve [1]): 2 min
Time of sensory block (Median) (rat's sciatic nerve [1]): 25 h
Time of motor block (Median) (rat's sciatic nerve [2]): 20 h
